According to patent US10286034B2, “Uses of bremelanotide in therapy for female sexual dysfunction” (Palatin Technologies, Inc., priority 2012, dated 2019):

What was measured:
[1] = Intranasal 10 mg Phase 2 studies in women with FSAD: plasma concentration 30 minutes post dose; format: in vivo, human; conditions: 10 mg intranasal
Experimental: (§1) In the bremelanotide premenopausal arm, 42.5% of the subjects were discontinued due to hypertension, nausea, vomiting or myalgia. Subjects received a 10 mg intranasal dose of bremelanotide, with premenopausal subjects determined to have a mean plasma concentration of 88.5±51.9 ng/mL and a % CV of 58.6, and postmenopausal subjects determined to have a mean plasma concentration of 93.2±68.5 ng/mL and a % CV of 73.5. The minimum and maximum plasma concentration levels for all women at thirty minutes post dose range from 0.0 ng/mL to 207.0 ng/mL.
In the intranasal study, premenopausal women self-administered a 10 mg intranasal dose.

female rats = conditions: cited from earlier work
[2] = Pharmacokinetics of subcutaneous administration in healthy adult males; format: in vivo, human; conditions: after subcutaneous administration
Excerpt: Results of Tmax values were compared between subcutaneous administration (SC) and intranasal (IN) administration of various doses of bremelanotide, as shown in FIG. 1.

[3] = Example 1: adverse events and discontinuations during double-blind treatment; format: in vivo, human
Experimental: A multi-centered, placebo-controlled, randomized, parallel group trial with fixed dose levels and designed to identify appropriate doses of bremelanotide administered by subcutaneous injection in premenopausal females with FSAD and/or HSDD, under the conditions of home use, was conducted. Subjects received a single dose of placebo (subject-blinded) in-clinic followed by 4 weeks of subject-blinded placebo treatment at home (subjects self-administered treatment as needed). Subjects who continued to qualify for the trial then received 2 single in-clinic doses of randomized treatment (double-blind; approximately one week apart), followed by 12 weeks of double-blind treatment at home (subjects self-administered treatment as needed).
Randomization occurred immediately prior to the first in-clinic dose of double-blind treatment. Study drug and placebo was provided as pre-filled syringes in 0.3 mL volume, with subjects instructed on self-administration into the anterior thigh or abdomen.

[4] = tested on: premenopausal and postmenopausal women with FSAD; experiment: Intranasal Phase 2 studies: efficacy, adverse events, discontinuation; format: in vivo, human
Experimental: as §1
Results with premenopausal women in a placebo-controlled, randomized, double-blind, parallel group, at-home exploratory study to evaluate the efficacy and safety of intranasally administered bremelanotide in subjects with female sexual arousal disorder (FSAD) were compared against results in the study of Example 1. In the intranasal study, a total of 76 premenopausal subjects were randomized, with 40 subjects to receive bremelanotide and 36 to receive placebo. Twenty-two subjects treated with bremelanotide and 29 treated with placebo completed the study, with 16 subjects who received bremelanotide (40%) discontinuing from the study due to an adverse event. This compares to the study of Example 1, in which as shown by Table 6 only 8% of subjects on the 1.75 mg subcutaneous dose discontinuing due to an adverse event.

[5] = tested on: healthy adult female subjects; experiment: Phase 1 single dose escalation, subcutaneous; vaginal photoplethysmography with visual sexual stimulation; format: in vivo, human
Experimental: In a double-blind, placebo-controlled, single dose, dose escalation Phase 1 study to determine the maximum tolerated dose in healthy adult female subjects, doses of from 0.3 to 5.0 mg (0.3, 1.0, 3.0 and 5.0 mg) of bremelanotide were administered by subcutaneous injection. However, this study specifically excluded women with a diagnosis of FSD, and thus could not determine an effective dose for treatment of FSD. The study did employ a measure of pharmacodynamic effect, defined as an increase of sexual arousal response in the presence of visual sexual stimulation as measured by vaginal blood flow with vaginal photoplethysmography (using a Geer gauge device), which measures vaginal pulse amplitude.

[6] = all women, thirty minutes post dose
[7] = 10 mg intranasal, premenopausal, 40 subjects randomized

CCCC[C@H](NC(C)=O)C(=O)N[C@H]1CC(=O)NCCCC[C@@H](C(=O)O)NC(=O)[C@H](Cc2c[nH]c3ccccc23)NC(=O)[C@H](CCCNC(=N)N)NC(=O)[C@@H](Cc2ccccc2)NC(=O)[C@H](Cc2c[nH]cn2)NC1=O [bremelanotide, Ac-Nle-cyclo(-Asp-His-D-Phe-Arg-Trp-Lys)-OH]
maximum plasma concentration level [1, 6]: 207.0 ng/mL | minimum plasma concentration level [1, 6]: 0.0 ng/mL | % CV of plasma concentration ([1]; postmenopausal subjects): 73.5% | % CV of Cmax (plasma concentration) ([1]; premenopausal women, 30 minutes post dosing): 58.6% | level at 0.5 h ([1]; female, human, plasma, inhaled or intranasal, postmenopausal subjects): 93.2 ± 68.5 ng/mL | effect on sexual behavior (female rats): selective pharmacological effect on appetitive sexual behavior | Fos induction (female rats; subcutaneous injections): inducing the immediate-early gene product Fos in a variety of limbic and hypothalamic structures | dopamine release (female rats; subcutaneous injections): increasing dopamine release in the medial preoptic area | time to quantifiable concentrations in plasma [2]: ≤ 15 min | patients discontinued based on adverse events ([3]; 0.75 mg): 2 | patients discontinued based on preset blood pressure change criterion ([3]; 0.75 mg): 4 | Any adverse event leading to withdrawal, number of subjects ([3]; 0.75 mg SC (N = 100)): 2 | Any adverse event leading to withdrawal, percent of subjects ([3]; 0.75 mg SC (N = 100)): (2%) | Any adverse event, number of subjects ([3]; 0.75 mg SC (N = 100)): 64 | Any adverse event, percent of subjects ([3]; 0.75 mg SC (N = 100)): (64%) | Flushing leading to withdrawal, number of subjects ([3]; 0.75 mg SC (N = 100)): 0 | Flushing, number of subjects ([3]; 0.75 mg SC (N = 100)): 17 | Flushing, percent of subjects ([3]; 0.75 mg SC (N = 100)): (17%) | Headache, number of subjects ([3]; 0.75 mg SC (N = 100)): 9 | Headache, percent of subjects ([3]; 0.75 mg SC (N = 100)): (9%) | Hypertension leading to withdrawal, number of subjects ([3]; 0.75 mg SC (N = 100)): 2 | Hypertension leading to withdrawal, percent of subjects ([3]; 0.75 mg SC (N = 100)): (2%) | Injection-site pain, number of subjects ([3]; 0.75 mg SC (N = 100)): 6 | Injection-site pain, percent of subjects ([3]; 0.75 mg SC (N = 100)): (6%) | Injection-site pruritus, number of subjects ([3]; 0.75 mg SC (N = 100)): 4 | Injection-site pruritus, percent of subjects ([3]; 0.75 mg SC (N = 100)): (4%) | Nausea leading to withdrawal, number of subjects ([3]; 0.75 mg SC (N = 100)): 0 | Nausea, number of subjects ([3]; 0.75 mg SC (N = 100)): 18 | Nausea, percent of subjects ([3]; 0.75 mg SC (N = 100)): (18%) | Upper respiratory tract infection, number of subjects ([3]; 0.75 mg SC (N = 100)): 8 | Upper respiratory tract infection, percent of subjects ([3]; 0.75 mg SC (N = 100)): (8%) | Vomiting leading to withdrawal, number of subjects ([3]; 0.75 mg SC (N = 100)): 0 | patients discontinued based on adverse events ([3]; 1.25 mg): 4 | patients discontinued based on preset blood pressure change criterion ([3]; 1.25 mg): 9 | Any adverse event leading to withdrawal, number of subjects ([3]; 1.25 mg SC (N = 99)): 4 | Any adverse event leading to withdrawal, percent of subjects ([3]; 1.25 mg SC (N = 99)): (4%) | Any adverse event, number of subjects ([3]; 1.25 mg SC (N = 99)): 61 | Any adverse event, percent of subjects ([3]; 1.25 mg SC (N = 99)): (62%) | Flushing leading to withdrawal, number of subjects ([3]; 1.25 mg SC (N = 99)): 1 | Flushing leading to withdrawal, percent of subjects ([3]; 1.25 mg SC (N = 99)): (1%) | Flushing, number of subjects ([3]; 1.25 mg SC (N = 99)): 14 | Flushing, percent of subjects ([3]; 1.25 mg SC (N = 99)): (14%) | Headache, number of subjects ([3]; 1.25 mg SC (N = 99)): 9 | Headache, percent of subjects ([3]; 1.25 mg SC (N = 99)): (9%) | Hypertension leading to withdrawal, number of subjects ([3]; 1.25 mg SC (N = 99)): 0 | Injection-site pain, number of subjects ([3]; 1.25 mg SC (N = 99)): 6 | Injection-site pain, percent of subjects ([3]; 1.25 mg SC (N = 99)): (6%) | Injection-site pruritus, number of subjects ([3]; 1.25 mg SC (N = 99)): 4 | Injection-site pruritus, percent of subjects ([3]; 1.25 mg SC (N = 99)): (4%) | Nausea leading to withdrawal, number of subjects ([3]; 1.25 mg SC (N = 99)): 0 | Nausea, number of subjects ([3]; 1.25 mg SC (N = 99)): 22 | Nausea, percent of subjects ([3]; 1.25 mg SC (N = 99)): (22%) | Upper respiratory tract infection, number of subjects ([3]; 1.25 mg SC (N = 99)): 5 | Upper respiratory tract infection, percent of subjects ([3]; 1.25 mg SC (N = 99)): (5%) | Vomiting leading to withdrawal, number of subjects ([3]; 1.25 mg SC (N = 99)): 1 | Vomiting leading to withdrawal, percent of subjects ([3]; 1.25 mg SC (N = 99)): (1%) | patients discontinued based on adverse events ([3]; 1.75 mg): 8 | patients discontinued based on preset blood pressure change criterion ([3]; 1.75 mg): 7 | Any adverse event leading to withdrawal, number of subjects ([3]; 1.75 mg SC (N = 98)): 8 | Any adverse event leading to withdrawal, percent of subjects ([3]; 1.75 mg SC (N = 98)): (8%) | Any adverse event, number of subjects ([3]; 1.75 mg SC (N = 98)): 67 | Any adverse event, percent of subjects ([3]; 1.75 mg SC (N = 98)): (68%) | Flushing leading to withdrawal, number of subjects ([3]; 1.75 mg SC (N = 98)): 1 | Flushing leading to withdrawal, percent of subjects ([3]; 1.75 mg SC (N = 98)): (1%) | Flushing, number of subjects ([3]; 1.75 mg SC (N = 98)): 17 | Flushing, percent of subjects ([3]; 1.75 mg SC (N = 98)): (17%) | Headache, number of subjects ([3]; 1.75 mg SC (N = 98)): 14 | Headache, percent of subjects ([3]; 1.75 mg SC (N = 98)): (14%) | Hypertension leading to withdrawal, number of subjects ([3]; 1.75 mg SC (N = 98)): 1 | Hypertension leading to withdrawal, percent of subjects ([3]; 1.75 mg SC (N = 98)): (1%) | Injection-site pain, number of subjects ([3]; 1.75 mg SC (N = 98)): 7 | Injection-site pain, percent of subjects ([3]; 1.75 mg SC (N = 98)): (7%) | Injection-site pruritus, number of subjects ([3]; 1.75 mg SC (N = 98)): 6 | Injection-site pruritus, percent of subjects ([3]; 1.75 mg SC (N = 98)): (6%) | Nausea leading to withdrawal, number of subjects ([3]; 1.75 mg SC (N = 98)): 3 | Nausea leading to withdrawal, percent of subjects ([3]; 1.75 mg SC (N = 98)): (3%) | Nausea, number of subjects ([3]; 1.75 mg SC (N = 98)): 24 | Nausea, percent of subjects ([3]; 1.75 mg SC (N = 98)): (24%) | Upper respiratory tract infection, number of subjects ([3]; 1.75 mg SC (N = 98)): 4 | Upper respiratory tract infection, percent of subjects ([3]; 1.75 mg SC (N = 98)): (4%) | Vomiting leading to withdrawal, number of subjects ([3]; 1.75 mg SC (N = 98)): 3 | Vomiting leading to withdrawal, percent of subjects ([3]; 1.75 mg SC (N = 98)): (3%) | subjects discontinuing due to an adverse event ([3]; 1.75 mg subcutaneous dose): 8% | tolerability during the trial ([3]; 0.75-1.75 mg SC): well-tolerated | serious adverse events considered related to treatment ([3]; of 7 serious adverse events): none | subjects discontinuing from the study due to an adverse event, number [4, 7]: 16 | subjects discontinuing from the study due to an adverse event, percent [4, 7]: 40% | subjects reporting at least one adverse event ([4]; intranasal, postmenopausal subjects): 100% | sexual desire and arousal compared to placebo ([4]; intranasal, premenopausal and postmenopausal women with FSAD, two Phase 2 trials): increase sexual desire and arousal compared to placebo | subjects discontinued due to hypertension, nausea, vomiting or myalgia ([4]; intranasal, premenopausal arm): 42.5% | subjects reporting at least one adverse event ([4]; intranasal, premenopausal subjects): 92.5% | pharmacodynamic effect (vaginal pulse amplitude) ([5]; 0.3 or 1.0 mg subcutaneous, compared to placebo or baseline): no apparent pharmacodynamic effect | pharmacodynamic effect (vaginal pulse amplitude) ([5]; 3 and 5 mg subcutaneous): statistically significant pharmacodynamic effect | subcutaneous doses at which a pharmacodynamics effect was seen ([5]; normal female volunteers): ≥ 3 mg
